According to ChEMBL document CHEMBL3046252, “Synthesis and herbicidal potential of substituted aurones” (2012):

Experiments:
Type in all cases: functional
[1] = system: Brassica rapa subsp. oleifera; test: Herbicidal activity against Brassica rapa subsp. oleifera assessed as inhibition of root growth at 100 ug/ml after 65 hr by rape cup test; details: read-out: GI
[2] = system: Digitaria sanguinalis; test: Herbicidal activity against Digitaria sanguinalis (hairy crabgrass) assessed as germination rate at 1000 ug/ml measured on third day post dose (reference value: 100%)
[3] = system: Echinochloa crus-galli; test: Herbicidal activity against Echinochloa crus-galli (barnyard grass) plants assessed as germination rate at 1000 ug/ml measured on first day post dose (reference value: 49.1 +/- 1.6%)
[4] = system: Echinochloa crus-galli; test: Herbicidal activity against Echinochloa crus-galli (barnyard grass) plants assessed as inhibition of seedling growth at 100 ug/ml after 65 hr by barnyard cup test; details: read-out: GI
[5] = system: Brassica rapa subsp. oleifera; test: Herbicidal activity against Brassica rapa subsp. oleifera assessed as inhibition of root growth at 1000 ug/ml after 65 hr by rape cup test; details: read-out: GI
[6] = system: Echinochloa crus-galli; test: Herbicidal activity against Echinochloa crus-galli (barnyard grass) plants assessed as germination rate at 1000 ug/ml measured on second day post dose (reference value: 100%)
[7] = system: Digitaria sanguinalis; test: Herbicidal activity against Digitaria sanguinalis (hairy crabgrass) assessed as germination rate at 1000 ug/ml measured on second day post dose (reference value: 100%)
[8] = system: Echinochloa crus-galli; test: Herbicidal activity against Echinochloa crus-galli (barnyard grass) plants assessed as inhibition of seedling growth at 1000 ug/ml after 65 hr by barnyard cup test; details: read-out: GI
[9] = system: Digitaria sanguinalis; test: Herbicidal activity against Digitaria sanguinalis (hairy crabgrass) assessed as germination rate at 1000 ug/ml measured on first day post dose (reference value: 0%)
[10] = system: Paraixeris denticulata; test: Herbicidal activity against Paraixeris denticulata assessed as germination rate at 1000 ug/ml measured on second day post dose (reference value: 76.7 +/- 0.3%)
[11] = system: Paraixeris denticulata; test: Herbicidal activity against Paraixeris denticulata assessed as germination rate at 1000 ug/ml measured on fourth day post dose (reference value: 100%)
[12] = system: Paraixeris denticulata; test: Herbicidal activity against Paraixeris denticulata assessed as germination rate at 1000 ug/ml measured on third day post dose (reference value: 97.4 +/- 0.6%)
[13] = system: Paraixeris denticulata; test: Herbicidal activity against Paraixeris denticulata assessed as germination rate at 1000 ug/ml measured on first day post dose (reference value: 30.8 +/- 1.2%)
[14] = system: Brassica rapa subsp. oleifera; test: Herbicidal activity against Brassica rapa subsp. oleifera assessed as inhibition of root growth at 10 ug/ml after 65 hr by rape cup test; details: read-out: GI
[15] = system: Brassica rapa subsp. oleifera; test: Pre-emergence herbicidal activity against Brassica rapa subsp. oleifera assessed as inhibition of plant fresh weight growth at 1500 g/ha applied to soil through spraying under greenhouse conditions; details: read-out: GI
[16] = system: Amaranthus retroflexus; test: Post-emergence herbicidal activity against Amaranthus retroflexus seedlings assessed as inhibition of plant fresh weight growth at 1500 g/ha applied through spraying under greenhouse conditions; details: read-out: GI
[17] = system: Amaranthus retroflexus; test: Pre-emergence herbicidal activity against Amaranthus retroflexusassessed as inhibition of plant fresh weight growth at 1500 g/ha applied to soil through spraying under greenhouse conditions; details: read-out: GI
[18] = system: Digitaria sanguinalis; test: Post-emergence herbicidal activity against Digitaria sanguinalis (hairy crabgrass) seedlings assessed as inhibition of plant fresh weight growth at 1500 g/ha applied through spraying under greenhouse conditions; details: read-out: GI
[19] = system: Brassica rapa subsp. oleifera; test: Post-emergence herbicidal activity against Brassica rapa subsp. oleifera seedlings assessed as inhibition of plant fresh weight growth at 1500 g/ha applied through spraying under greenhouse conditions; details: read-out: GI
[20] = system: Echinochloa crus-galli; test: Post-emergence herbicidal activity against Echinochloa crus-galli (barnyard grass) seedlings assessed as inhibition of plant fresh weight growth at 1500 g/ha applied through spraying under greenhouse conditions; details: read-out: GI
[21] = system: Digitaria sanguinalis; test: Pre-emergence herbicidal activity against Digitaria sanguinalis (hairy crabgrass) assessed as inhibition of plant fresh weight growth at 1500 g/ha applied to soil through spraying under greenhouse conditions; details: read-out: GI
[22] = system: Echinochloa crus-galli; test: Pre-emergence herbicidal activity against Echinochloa crus-galli (barnyard grass) assessed as inhibition of plant fresh weight growth at 1500 g/ha applied to soil through spraying under greenhouse conditions; details: read-out: GI

SMILES	inhibition of growth at 100 µg/mL [1] [%]	inhibition of growth at 100 µg/mL [4] [%]	inhibition of growth at 1000 µg/mL [5] [%]	inhibition of growth at 1000 µg/mL [8] [%]	other results
COc1cc2c(c(OC)c1C)C(=O)/C(=C/c1ccccc1)O2	30.5	15	82.6	33.5	Activity [2]: 100%; Activity [3]: 19.5%; Activity [6]: 100%; Activity [7]: 68.6%; Activity [9]: 0%
CCOc1cc(OCC)c2c(c1)O/C(=C\c1ccccc1)C2=O	37.5	8	71.3	27.6	Activity [3]: 17.7%; Activity [6]: 100%
COc1ccc(/C=C2\Oc3cc(OC)c(C)c(OC)c3C2=O)cc1OC	40.1	16.8	83.8	51.8	–
COc1ccc(/C=C2\Oc3cc(O)cc(O)c3C2=O)cc1OC	48	12.3	82.6	48.1	–
COc1cc(/C=C2\Oc3cc(OC(=O)c4ccccc4)cc(OC(=O)c4ccccc4)c3C2=O)cc(OC)c1OCc1ccccc1	47.6	5	77.1	19.6	–
COc1cc(/C=C2\Oc3cc(O)cc(O)c3C2=O)cc(OC)c1O	0	5	0	10	–
O=C1/C(=C/c2ccc3c(c2)OCO3)Oc2cc(O)cc(O)c21	0	5	8.7	10	–
O=C1/C(=C/c2ccccc2)Oc2cc(O)cc(O)c21	50.1	19.9	96.5	49.3	Activity [2]: 100%; Activity [3]: 15.3%; Activity [6]: 100%
COc1cc(/C=C2\Oc3cc(O)cc(O)c3C2=O)ccc1O	63.3	9.5	98.4	23.3	Activity [2]: 100%; Activity [3]: 16.9%; Activity [10]: 82.4%; Activity [11]: 100%; Activity [6]: 100%; Activity [7]: 35.1%; Activity [12]: 94.9%; Activity [9]: 0%; Activity [13]: 14.3%
COc1cc(/C=C2\Oc3cc(O)cc(O)c3C2=O)cc(OC)c1OC	0	5.2	83.8	68.7	–
O=C1/C(=C/c2ccc(O)cc2)Oc2cc(O)cc(O)c21	55.2	15	72.1	57.9	–
CC(C)(C)c1ccc(/C=C2\Oc3cc(O)cc(O)c3C2=O)cc1	9.5	1.5	87.5	39.6	–
COc1cc(OC)c2c(c1)O/C(=C\c1ccc(F)cc1)C2=O	64.2	0	74.2	5	inhibition of growth at 10 µg/mL [14]: 50.6%
COc1ccc(/C=C2\Oc3cc(O)cc(O)c3C2=O)cc1	63.7	10	90.8	28.8	–
COc1ccc(/C=C2\Oc3cc(OC)cc(OC)c3C2=O)cc1 [4,4',6-TRIMETHOXY-AURONE]	72.3	18.6	87.8	62.8	inhibition of growth at 10 µg/mL [14]: 63.2%
O=C1/C(=C/c2ccc(F)cc2)Oc2cc(O)cc(O)c21	39.1	5	42.3	20	–
CCOc1cc(OCC)c2c(c1)O/C(=C\c1ccc(OC)cc1)C2=O	0	10	17.7	35	–
COc1cc(/C=C2\Oc3cc(OC)c(C)c(OC)c3C2=O)ccc1OCc1ccccc1	71.7	19	99.5	45.1	Activity [2]: 100%; inhibition of growth at 10 µg/mL [14]: 42.6%; Activity [3]: 16.3%; Activity [10]: 65.5%; Activity [11]: 100%; Activity [6]: 100%; Activity [7]: 38.9%; Activity [12]: 91.7%; Activity [9]: 0%; Activity [13]: 12.1%
COc1cc(OC)c2c(c1)O/C(=C\c1ccc(OC)c(OC)c1)C2=O [4,6,3',4'-TETRAMETHOXYAURONE]	5.3	0.9	77.9	61.3	Activity [2]: 100%; Activity [3]: 13%; Activity [10]: 69.6%; Activity [11]: 100%; Activity [6]: 100%; Activity [7]: 41.4%; Activity [12]: 100%; Activity [9]: 0%; Activity [13]: 20%
COc1cc(/C=C2\Oc3cc(O)cc(O)c3C2=O)cc(OC)c1OCc1ccccc1	48.8	15.2	75.9	36.9	–
COc1cc(OC)c2c(c1)O/C(=C\c1cccc(F)c1)C2=O	57.8	14.4	82.1	43.8	–
COc1cc2c(c(OC)c1C)C(=O)/C(=C/c1ccc(F)cc1)O2	46.6	0	59	15	–
CN(C)c1ccc(/C=C2\Oc3cc(O)cc(O)c3C2=O)cc1	54.2	3	78.9	46.6	Activity [3]: 16.9%; Activity [6]: 100%; Activity [7]: 27.8%; Activity [9]: 0%
COc1cc(/C=C2\Oc3cc(O)cc(O)c3C2=O)ccc1OCc1ccccc1	46.8	9.7	87.9	38.6	–
Cc1ccc(/C=C2\Oc3cc(O)cc(O)c3C2=O)cc1	44.3	5	78.2	44.2	–
CCc1cccc(C)c1N(C(=O)CCl)C(C)COC (centres undefined) [METOLACHOR]	–	–	–	–	inhibition of growth at 1500 g/ha [15]: 88.3%; inhibition of growth at 1500 g/ha [16]: 66.4%; inhibition of growth at 1500 g/ha [17]: 100%; inhibition of growth at 1500 g/ha [18]: 46.3%; inhibition of growth at 1500 g/ha [19]: 100%; inhibition of growth at 1500 g/ha [20]: 54%; inhibition of growth at 1500 g/ha [21]: 100%; inhibition of growth at 1500 g/ha [22]: 100%
COc1cc(OC)c2c(c1)O/C(=C\c1cccc(OC)c1OC)C2=O	34.7	25.5	51.4	42.6	–
COc1cc(OC)c2c(c1)O/C(=C\c1ccco1)C2=O	75.9	7.8	94.9	42.5	Activity [2]: 100%; inhibition of growth at 10 µg/mL [14]: 31.6%; Activity [3]: 23.7%; Activity [6]: 100%; Activity [7]: 35%; Activity [9]: 0%
COc1cc2c(c(OC)c1C)C(=O)/C(=C/c1ccc(OCc3ccccc3)cc1)O2	14.2	2.3	91.9	40.8	–
COc1cc(OC)c2c(c1)O/C(=C\c1ccc(OCc3ccccc3)c(OC)c1)C2=O	54	8.4	68	44.4	–
